Measurements from patent US10865191B2, “Heterocyclic compounds useful as modulators of TNF alpha” (BRISTOL-MYERS SQUIBB COMPANY, priority 2015, dated 2020).

Target: TNFα (Homo sapiens, UniProt P01375)
Assay: TNF induced HEK-Blue assay (NF-kB-driven secreted alkaline phosphatase reporter)
Format: cell-based
Details: TNFα 0.5 ng/mL, HEK-Blue-CD40L cells, 18 h; read-out: TNF induced HEK-Blue assay IC50 value
Procedure, shortened: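 HEK-Blue-CD40L cells (NF-kB-driven SEAP reporter), 20,000/well, added after 30 min pre-incubation of compound (0.004–25 μM final) with TNFα 0.5 ng/mL final at 37 °C; 18 h incubation. SEAP read with QUANTI-Blue at 620 nm; IC50 from 4-parameter logistic fit, normalized to unstimulated and stimulated DMSO controls.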

Sequence of TNFα (P01375 77-233 limits assumed): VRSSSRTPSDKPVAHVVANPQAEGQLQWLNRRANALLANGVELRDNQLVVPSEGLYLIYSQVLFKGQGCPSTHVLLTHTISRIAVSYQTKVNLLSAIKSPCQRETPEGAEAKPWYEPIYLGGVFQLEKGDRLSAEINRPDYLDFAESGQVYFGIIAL

Compound | IC50
C[C@@H](Nc1c(Cl)cnc2ccc(-c3cnc(C4CCN(CC(=O)O)CC4)nc3)cc12)c1ccccc1F [Example 593, (R)-2-(4-(5-(3-chloro-4-((1-(2-fluorophenyl)ethyl)amino)quinolin-6-yl)pyrimidin-2-yl)piperidin-1-yl)acetic acid] | 1000 to 10000 nM
CC(C)(O)c1ncc(-c2ccc3ncc(Cl)c(NC4(c5ccccc5)CC4)c3c2)cn1 [Example 161, 2-(5-(3-chloro-4-((1-phenylcyclopropyl)amino)quinolin-6-yl)pyrimidin-2-yl)propan-2-ol] | 1000 to 10000 nM
Cc1nc2ccc(-c3cnc(N4CCNC(=O)C4)nc3)cc2c(N[C@H](C)c2cc(C(N)=O)ccc2F)c1Cl [Example 447, (R)-3-(1-((3-chloro-2-methyl-6-(2-(3-oxopiperazin-1-yl)pyrimidin-5-yl)quinolin-4-yl)amino)ethyl)-4-fluorobenzamide] | < 1000 nM
Cc1nc2ccc(-c3cnc(C(C)(C)O)nc3)cc2c(N[C@H](C)c2cccc(C#N)c2)c1Cl [Example 386, (R)-3-(1-((3-chloro-6-(2-(2-hydroxypropan-2-yl)pyrimidin-5-yl)-2-methylquinolin-4-yl)amino)ethyl)benzonitrile] | < 1000 nM
C[C@@H](Nc1c(Cl)cnc2ccc(-c3cnc([C@]4(O)CCC[C@H]4O)nc3)cc12)c1ccccc1F [Example 121, (1R,2R)-1-(5-(3-chloro-4-(((R)-1-(2-fluorophenyl)ethyl)amino)quinolin-6-yl)pyrimidin-2-yl)cyclopentane-1,2-diol] | < 1000 nM
Cc1nc2cc(F)c(-c3cnc(C(C)(C)O)nc3)cc2c(N[C@H](C)c2cc(OCCO)ccc2F)c1Cl [Example 324, (R)-2-(5-(3-chloro-7-fluoro-4-((1-(2-fluoro-5-(2-hydroxyethoxy)phenyl)ethyl)amino)-2-methylquinolin-6-yl)pyrimidin-2-yl)propan-2-ol] | < 1000 nM
CC(Nc1c(Cl)cnc2ccc(-c3ccc(C(C)(C)O)cc3)cc12)c1nccs1 (racemic) [Example 194, 2-(4-(3-chloro-4-((1-(thiazol-2-yl)ethyl)amino)quinolin-6-yl)phenyl)propan-2-ol] | < 1000 nM
C[C@@H](Nc1c(Cl)cnc2ccccc12)c1cc(CCCO)ccc1F [Example 464, (R)-3-(3-(1-((3-chloroquinolin-4-yl)amino)ethyl)-4-fluorophenyl)propan-1-ol] | 1000 to 10000 nM
CC(Nc1c(Cl)cnc2cc(F)c(-c3ccc(C(O)CN4CCOCC4)cc3)cc12)c1ccccc1F (stereo not shown) [Example 288, 1-(4-(3-chloro-7-fluoro-4-((1-(2-fluorophenyl)ethyl)amino)quinolin-6-yl)phenyl)-2-morpholinoethan-1-ol] | 1000 to 10000 nM

More lines, now with the values ahead:

IC50 | Compound
< 1000 nM | C[C@@H](Nc1c(Cl)cnc2ccc(-c3cnc(C(C)(C)O)nc3)cc12)c1cc(-c2cnn(CC(C)(C)O)c2)ccc1F [Example 349, (R)-1-(4-(3-(1-((3-chloro-6-(2-(2-hydroxypropan-2-yl)pyrimidin-5-yl)quinolin-4-yl)amino)ethyl)-4-fluorophenyl)-1H-pyrazol-1-yl)-2-methylpropan-2-ol]
< 1000 nM | CC(Nc1c(Cl)cnc2cc(F)c(-c3cc(F)c(C(C)(C)O)c(F)c3)cc12)c1ccccc1F (racemic) [Example 267, 2-(4-(3-chloro-7-fluoro-4-((1-(2-fluorophenyl)ethyl)amino)quinolin-6-yl)-2,6-difluorophenyl)propan-2-ol]
< 1000 nM | COC(=O)c1ccc(F)c([C@@H](C)Nc2c(Cl)cnc3ccc(-c4cnc(C(C)(C)O)nc4)cc23)c1 [Example 415, Methyl (R)-3-(1-((3-chloro-6-(2-(2-hydroxypropan-2-yl)pyrimidin-5-yl)quinolin-4-yl)amino)ethyl)-4-fluorobenzoate]
< 1000 nM | Cc1ccc(C)c(Nc2c(Cl)c(N)nc3ccc(-c4cnc(N5CCN(CC(=O)O)CC5)nc4)cc23)c1 [Example 45, 2-(4-(5-(2-amino-3-chloro-4-((2,5-dimethylphenyl)amino)quinolin-6-yl)pyrimidin-2-yl)piperazin-1-yl)acetic acid]
